Results taken from patent publication US20050182073A1, “5-Phenylpyrimidines” (priority 2004, published 2005).

Experiment: logP determination by HPLC (EEC Directive 79/831 Annex V. A8)
Type: physicochemical
Details: gradient method, acetonitrile/0.1% aqueous phosphoric acid
Protocol: The logP values were determined in accordance with EEC Directive 79/831 Annex V. A8 by HPLC (gradient method, acetonitrile/0.1% aqueous phosphoric acid).

chromatographic logP	Structure (SMILES)
3.27	CC(C)Cc1nc([S+](C)[O-])nc(Cl)c1-c1ccc(F)cc1Cl (stereo not shown) [4-chloro-5-(2-chloro-4-fluorophenyl)-6-isobutyl-2-(methylsulphinyl)pyrimidine]
3.79	CC(C)Cc1nc(-n2cncn2)nc(Cl)c1-c1ccc(F)cc1Cl [Example 1, 4-chloro-5-(2-chloro-4-fluorophenyl)-6-isobutyl-2-(1H-1,2,4-triazol-1-yl)pyrimidine]
5.67	CSc1nc(Cl)c(-c2ccc(F)cc2Cl)c(CC(C)C)n1 [II-2, 4-chloro-5-(2-chloro-4-fluorophenyl)-6-isobutyl-2-(methylthio)pyrimidine]
3.82	CC(C)Cc1nc(S(C)(=O)=O)nc(Cl)c1-c1ccc(F)cc1Cl [III-2a, 4-chloro-5-(2-chloro-4-fluorophenyl)-6-isobutyl-2-(methylsulphonyl)pyrimidine]
